Assay results taken from ChEMBL document CHEMBL6182900, “Discovery of potent focal adhesion kinase (FAK) inhibitor A8 with enhanced antitumor activity” (Eur J Med Chem, 2025).
One block for each compound: values may come before it.

Columns and labels:
SK-OV-3 [1] = test: Antitumor activity against human SK-OV-3 cells xenografted in mouse model assessed as tumor growth inhibition at 4 mg/kg, ip administered as weekly dose relative to control; assay type: functional; conditions: read-out: TGI
Focal adhesion kinase 1 = Focal adhesion kinase 1 (Homo sapiens, UniProt Q05397); test: Inhibition of FAK (unknown origin) by HTRF assay
SK-OV-3 [2] = test: Antitumor activity against human SK-OV-3 cells xenografted in mouse model assessed as tumor growth inhibition at 25 mg/kg co-administered with paclitaxel as twice daily dose for 5 days and measured after 2 days break relative to control; conditions: SK-OV-3, 168 h, read-out: TGI
A549 = test: Antitumor activity against human A549 cells xenografted in mouse model assessed as tumor growth inhibition at 50 mg/kg, po administered for 5 days and measured after 2 days relative to control; conditions: 168 h, read-out: TGI
SK-OV-3 [3] = test: Antitumor activity against human SK-OV-3 cells xenografted in mouse model assessed as tumor growth inhibition at 25 mg/kg administered twice daily for 5 days and measured after 2 days break relative to control; assay type: functional; conditions: SK-OV-3, 168 h, time 7 day, read-out: TGI
in vitro = conditions: human, liver microsomes
Description: Metabolic stability in human liver microsomes assessed as intrinsic clearance preincubated for 5 mins followed by NADPH addition and measured after 60 mins by LC-MS/MS analysis

Cytochrome P450 3A4 = Cytochrome P450 3A4 (Homo sapiens, UniProt P08684); test: Inhibition of CYP3A4 in human liver microsomes in presence of NADPH by LC-MS/MS analysis; assay type: ADME, Microsome
Cytochrome P450 2C9 = Cytochrome P450 2C9 (Homo sapiens, UniProt P11712); test: Inhibition of CYP2C9 in human liver microsomes in presence of NADPH by LC-MS/MS analysis; assay type: ADME, Microsome
Cytochrome P450 1A2 = target: T1, Cytochrome P450 1A2 (Homo sapiens, UniProt P05177); test: Inhibition of CYP1A2 in human liver microsomes in presence of NADPH by LC-MS/MS analysis; assay type: ADME, Microsome
T1 sequence (P05177 whole entry): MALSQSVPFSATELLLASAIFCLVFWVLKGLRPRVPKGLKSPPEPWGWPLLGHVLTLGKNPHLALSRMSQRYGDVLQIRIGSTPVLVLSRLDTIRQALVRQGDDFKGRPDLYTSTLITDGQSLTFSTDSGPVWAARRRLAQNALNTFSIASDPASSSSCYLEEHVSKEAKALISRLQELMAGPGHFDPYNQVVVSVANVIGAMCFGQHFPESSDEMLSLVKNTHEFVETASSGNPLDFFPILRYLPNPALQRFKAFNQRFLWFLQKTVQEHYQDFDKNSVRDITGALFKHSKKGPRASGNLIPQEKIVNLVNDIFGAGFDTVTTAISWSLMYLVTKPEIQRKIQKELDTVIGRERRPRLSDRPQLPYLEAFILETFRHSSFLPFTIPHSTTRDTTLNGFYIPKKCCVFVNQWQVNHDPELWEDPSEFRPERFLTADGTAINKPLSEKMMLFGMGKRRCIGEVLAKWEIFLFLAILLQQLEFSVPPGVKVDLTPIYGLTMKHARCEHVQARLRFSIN

Cytochrome P450 2D6 = Cytochrome P450 2D6 (Homo sapiens, UniProt P10635); test: Inhibition of CYP2D6 in human liver microsomes in presence of NADPH by LC-MS/MS analysis; assay type: ADME, Microsome
Cytochrome P450 2C19 = Cytochrome P450 2C19 (Homo sapiens, UniProt P33261); test: Inhibition of CYP2C19 in human liver microsomes in presence of NADPH by LC-MS/MS analysis; assay type: ADME, Microsome
Cytochrome P450 2C19, sequence (P33261 whole entry): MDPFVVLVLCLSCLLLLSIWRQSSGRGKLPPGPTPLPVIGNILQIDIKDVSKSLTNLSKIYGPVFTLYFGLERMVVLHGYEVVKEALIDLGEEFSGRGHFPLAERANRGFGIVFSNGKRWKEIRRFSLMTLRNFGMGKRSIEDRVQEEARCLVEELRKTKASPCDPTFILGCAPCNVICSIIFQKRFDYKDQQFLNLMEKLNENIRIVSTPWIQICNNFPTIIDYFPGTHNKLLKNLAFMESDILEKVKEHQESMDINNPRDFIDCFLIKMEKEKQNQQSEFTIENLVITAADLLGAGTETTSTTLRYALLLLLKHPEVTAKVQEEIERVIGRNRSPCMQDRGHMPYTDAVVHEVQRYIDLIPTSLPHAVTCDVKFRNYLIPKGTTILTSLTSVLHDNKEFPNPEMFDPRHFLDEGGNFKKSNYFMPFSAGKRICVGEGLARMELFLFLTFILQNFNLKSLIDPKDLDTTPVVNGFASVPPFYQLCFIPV

Cytochrome P450 2C9, sequence (P11712 whole entry): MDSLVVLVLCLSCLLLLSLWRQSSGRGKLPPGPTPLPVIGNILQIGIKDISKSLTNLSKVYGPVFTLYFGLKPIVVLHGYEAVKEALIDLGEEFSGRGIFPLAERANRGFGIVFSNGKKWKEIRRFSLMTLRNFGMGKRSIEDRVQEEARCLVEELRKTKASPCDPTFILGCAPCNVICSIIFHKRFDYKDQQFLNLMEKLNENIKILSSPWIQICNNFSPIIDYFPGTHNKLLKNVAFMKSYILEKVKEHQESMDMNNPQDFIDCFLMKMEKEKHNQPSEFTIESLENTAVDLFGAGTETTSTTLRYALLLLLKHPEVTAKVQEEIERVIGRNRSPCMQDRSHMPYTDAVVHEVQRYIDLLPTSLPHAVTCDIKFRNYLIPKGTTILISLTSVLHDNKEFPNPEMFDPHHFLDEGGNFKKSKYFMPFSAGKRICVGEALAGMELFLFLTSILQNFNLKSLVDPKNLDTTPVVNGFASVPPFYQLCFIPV
Cytochrome P450 2D6, sequence (P10635 whole entry): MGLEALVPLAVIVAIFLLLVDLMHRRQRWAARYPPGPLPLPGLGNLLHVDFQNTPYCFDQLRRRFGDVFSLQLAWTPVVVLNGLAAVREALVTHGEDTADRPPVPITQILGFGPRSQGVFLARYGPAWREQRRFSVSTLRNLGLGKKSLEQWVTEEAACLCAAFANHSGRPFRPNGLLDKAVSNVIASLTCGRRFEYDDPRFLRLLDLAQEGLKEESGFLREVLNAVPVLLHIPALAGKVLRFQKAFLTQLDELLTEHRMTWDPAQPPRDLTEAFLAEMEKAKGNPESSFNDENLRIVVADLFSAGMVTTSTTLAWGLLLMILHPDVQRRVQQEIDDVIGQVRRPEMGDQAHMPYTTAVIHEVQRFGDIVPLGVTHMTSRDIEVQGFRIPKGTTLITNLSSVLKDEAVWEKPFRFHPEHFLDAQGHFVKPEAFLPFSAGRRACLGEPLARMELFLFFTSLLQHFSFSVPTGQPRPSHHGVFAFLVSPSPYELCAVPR
Cytochrome P450 3A4, sequence (P08684 whole entry): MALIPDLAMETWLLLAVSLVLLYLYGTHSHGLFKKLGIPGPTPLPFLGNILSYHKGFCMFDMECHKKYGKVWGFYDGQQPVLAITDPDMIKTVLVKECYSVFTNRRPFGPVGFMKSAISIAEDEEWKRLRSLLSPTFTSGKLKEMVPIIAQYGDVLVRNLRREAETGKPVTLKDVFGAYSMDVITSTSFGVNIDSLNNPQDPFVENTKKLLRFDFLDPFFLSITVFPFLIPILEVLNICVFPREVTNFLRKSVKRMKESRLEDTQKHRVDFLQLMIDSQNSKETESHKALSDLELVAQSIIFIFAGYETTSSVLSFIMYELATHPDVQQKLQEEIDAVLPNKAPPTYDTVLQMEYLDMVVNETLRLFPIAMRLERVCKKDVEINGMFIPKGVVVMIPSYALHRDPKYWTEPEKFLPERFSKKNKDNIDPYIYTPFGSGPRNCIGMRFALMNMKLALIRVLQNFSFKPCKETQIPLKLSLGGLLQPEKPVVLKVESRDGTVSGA
Focal adhesion kinase 1, sequence (Q05397 whole entry): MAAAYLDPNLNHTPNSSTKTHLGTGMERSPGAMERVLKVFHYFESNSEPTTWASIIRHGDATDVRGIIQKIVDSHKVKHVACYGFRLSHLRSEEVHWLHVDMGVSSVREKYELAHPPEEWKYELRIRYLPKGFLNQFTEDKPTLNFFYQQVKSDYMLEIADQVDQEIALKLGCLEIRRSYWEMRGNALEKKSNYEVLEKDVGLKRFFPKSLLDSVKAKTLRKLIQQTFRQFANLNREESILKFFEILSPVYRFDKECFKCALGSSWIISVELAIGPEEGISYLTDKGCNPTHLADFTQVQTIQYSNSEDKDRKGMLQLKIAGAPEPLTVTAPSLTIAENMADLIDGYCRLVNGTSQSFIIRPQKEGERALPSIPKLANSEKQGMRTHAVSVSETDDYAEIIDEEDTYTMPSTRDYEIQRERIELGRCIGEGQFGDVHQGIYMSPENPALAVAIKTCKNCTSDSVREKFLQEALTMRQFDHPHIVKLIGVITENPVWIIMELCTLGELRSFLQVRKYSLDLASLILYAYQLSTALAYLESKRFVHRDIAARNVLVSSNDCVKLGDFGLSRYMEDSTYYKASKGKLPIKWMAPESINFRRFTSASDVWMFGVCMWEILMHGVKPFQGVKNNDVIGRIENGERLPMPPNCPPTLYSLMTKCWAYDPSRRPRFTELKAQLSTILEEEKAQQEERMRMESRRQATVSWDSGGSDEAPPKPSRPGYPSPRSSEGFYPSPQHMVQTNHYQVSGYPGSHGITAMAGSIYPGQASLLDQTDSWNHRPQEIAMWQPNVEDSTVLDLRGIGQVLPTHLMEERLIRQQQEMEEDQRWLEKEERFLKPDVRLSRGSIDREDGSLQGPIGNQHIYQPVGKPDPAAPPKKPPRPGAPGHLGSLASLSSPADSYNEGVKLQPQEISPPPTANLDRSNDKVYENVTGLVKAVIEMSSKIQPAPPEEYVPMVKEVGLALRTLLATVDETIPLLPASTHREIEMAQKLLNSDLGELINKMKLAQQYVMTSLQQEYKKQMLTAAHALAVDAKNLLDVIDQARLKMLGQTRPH

Compound: CC(=O)O[C@H]1C(=O)[C@@]2(C)[C@H]([C@H](OC(=O)c3ccccc3)[C@]3(O)C[C@H](OC(=O)[C@H](O)[C@@H](NC(=O)c4ccccc4)c4ccccc4)C(C)=C1C3(C)C)[C@]1(OC(C)=O)CO[C@@H]1C[C@@H]2O [PACLITAXEL]
- inhibition in vivo at 4 mg/kg (SK-OV-3 [1]): 55.3%

- IC50 (Focal adhesion kinase 1): 0.0113 µM
Compound: CC(=O)Nc1ccc(Nc2nc(Nc3ccc(NC(=O)CCNC(=O)c4ccc(F)nc4)cc3)ncc2Br)c(NC(C)=O)c1

Compound: CNC(=O)c1ccc(Nc2ncc(C(F)(F)F)c(NCc3nccnc3N(C)S(C)(=O)=O)n2)cc1 [DEFACTINIB]
- inhibition in vivo at 25 mg/kg (SK-OV-3 [2]): 74.7%
- inhibition in vivo at 50 mg/kg (A549): 40.7%
- inhibition in vivo at 25 mg/kg (SK-OV-3 [3]): 53.9%

- microsomal CLint at 1 h (in vitro): 232 µL/min/mg
Compound: O=C(O)Cc1ccccc1Nc1c(Cl)cccc1Cl [DICLOFENAC]

Compound: C#Cc1cccc(Nc2ncnc3cc(OCCOC)c(OCCOC)cc23)c1 [ERLOTINIB]
- inhibition in vivo at 50 mg/kg (A549): 47.4%

- IC50 (Cytochrome P450 3A4): > 50 µM
- IC50 (Cytochrome P450 2C9): 22.5 µM
- IC50 (Cytochrome P450 1A2): 26.6 µM
- IC50 (Cytochrome P450 2D6): > 50 µM
- IC50 (Cytochrome P450 2C19): 36.2 µM
Compound: CNC(=O)c1ccccc1Nc1nc(Nc2ccc(OCCF)cc2)ncc1Br
